Experimental data reported in ChEMBL document CHEMBL1201862, “PubChem BioAssay data set” (2004).
One block for each compound: values may come before it. Calls of active or inactive are those of the source.

Legend:
[1] = inhibitors of TRPM1-promoter reporter in SK-MEL-5 – cell-based, luciferase, dry powder, set 9, MITF inhibitor project, dose response (AID 651588); format: functional
[2] = MITF Orthogonal Assay: MALME3 CTG Assay Measured in Cell-Based System Using Plate Reader - 2084-04_Inhibitor_Dose_DryPowder_Activity_Set6.; format: functional; settings: MALME-3
[3] = growth inhibition of SK-MEL-5 melanoma cells – cell-based, CellTiter-Glo luminescence, dry powder, set 8, orthogonal assay for MITF inhibitor project, dose response (AID 651586); format: functional
[4] = growth inhibition of MALME3 cells – cell-based, CellTiter-Glo luminescence, dry powder, set 5, orthogonal assay for MITF inhibitor project, dose response (AID 651584); format: functional; settings: MALME-3
[5] = MITF Orthogonal Assay: SK-MEL-5 CTG Assay Measured in Cell-Based System Using Plate Reader - 2084-02_Inhibitor_Dose_DryPowder_Activity_Set7.; format: functional
[6] = MITF: Counter assay: A375 proliferation Measured in Cell-Based System Using Plate Reader - 2084-03_Inhibitor_Dose_DryPowder_Activity_Set8.; format: functional; settings: A-375
[7] = inhibitors of TRPM1-promoter reporter in SK-MEL-5 – cell-based, luciferase, dry powder, set 8, MITF inhibitor project, dose response (AID 624430); format: functional
[8] = viability reduction in hepatoma cells – cell-based, ATP luminescence, dry powder, Set4, cytotoxicity control, dose response (AID 743143); format: functional; settings: HepG2
[9] = rise of 2N DNA cells, HeLa – IC50, dose response (AID 1117349); format: functional, cell-based
[10] = CellTiter-Glo luminescence survival assay, SW480 colon tumor line, concentration-response curve, half-maximal inhibitory concentration (AID 1117338); format: functional
[11] = RKO cell viability reduction, dose response, CellTiter-Glo luminescence (AID 1117322); format: functional
[12] = cytotoxicity toward HCT116 cells – cell-based, CellTiter-Glo luminescence, IC50, dose response (AID 1117332); format: functional; settings: HCT-116
[13] = SNU-C1 cell viability reduction, dose response, CellTiter-Glo luminescence (AID 1117323); format: functional, cell-based
[14] = cytotoxicity toward Colo320 cells – cell-based, CellTiter-Glo luminescence, IC50, dose response (AID 1117334); format: functional; settings: COLO 320
[15] = rise of 4N DNA cells, HeLa – IC50, dose response (AID 1117351); format: functional, cell-based
[16] = cytotoxicity toward HT-29 cells – cell-based, CellTiter-Glo luminescence, IC50, dose response (AID 1117330); format: functional
[17] = Reduced DLD-1 viability, concentration-response, CellTiter-Glo luminescence (AID 1117352); format: functional
[18] = HCT116 cell viability decrease, GSK3B pretreatment – CellTiter-Glo, IC50, dose response (AID 1117339); format: functional; settings: HCT-116
[19] = Late stage results for the probe development effort to identify inhibitors of Plasmodium falciparum gametocytes: Luminescence-based cell-based high throughput dose response assay to identify inhibitors of viability of late stage Plasmodium falciparum gametocytes.; format: functional
[20] = growth inhibition of yeast DHODH-expressing 3D7 parasites – SYBR Green, dry powder samples, dose response (AID 1159570); format: functional, cell-based;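 also: parasite growth measured after 72 hours of compound exposure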
[21] = toxicity to human HepG2 hepatoma cells – cell-based, plate reader, dry powder samples, cytotoxicity control, dose response (AID 1159569); format: functional;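 also: inhibitor potency with signal falling toward the positive control level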
[22] = P. falciparum Dd2 growth inhibitors, dose response, SYBR Green, cherry-picked samples (AID 1159567); format: functional, cell-based
[23] = Dd2 malaria parasite growth inhibition potency – SYBR Green, dry powder samples, dose response (AID 1159566); format: functional, cell-based;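 also: potency for growth inhibition with lower SYBR green DNA signal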
[24] = growth inhibition of PfATP4-mutant resistant parasites – NITD609-resistant line, SYBR Green, dry powder, dose response (AID 1159571); format: functional, cell-based;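 also: parasites synchronized at ring stage by sorbitol before testing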
[25] = target: T1, Low molecular weight phosphotyrosine protein phosphatase (Homo sapiens, UniProt P24666); test: inhibition of LMPTP-A enzymatic activity – biochemical, OMFP substrate, fluorescence intensity, set 2, dose response (AID 743307); format: functional
T1 sequence (P24666 whole entry): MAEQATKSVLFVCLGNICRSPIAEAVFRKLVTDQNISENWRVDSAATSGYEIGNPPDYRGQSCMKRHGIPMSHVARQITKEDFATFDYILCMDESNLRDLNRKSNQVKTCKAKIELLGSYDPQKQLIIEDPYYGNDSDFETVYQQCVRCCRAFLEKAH

[26] = target: T1, Low molecular weight phosphotyrosine protein phosphatase; test: inhibition of human LMPTP enzyme activity – biochemical, absorbance, pNPP substrate, LMPTP-A isoform, set 2, orthogonal assay, dose response (AID 743308); format: functional

Compound: CC(C)N1CCN(C2=C(Nc3ccc(F)cc3F)C(=O)c3ccccc3C2=O)CC1
AC50 [1]: 9.91 µM (active)
AC50 [2]: 25.4 µM (active)
AC50 [3]: 59.1 µM (active)
AC50 [4]: 25.4 µM (active)
AC50 [5]: 8.73 µM (active)
AC50 [6]: > 70 µM (inactive)
AC50 [7]: 2.16 µM (active)

Compound: O=C(CCn1cnc2ccccc2c1=O)NC1CCCc2ccccc21 (stereo unspecified)
AC50 [8]: > 52 µM (inactive)

Compound: Cc1cc(N)c2ccccc2[n+]1CCCCCCCCCC[n+]1c(C)cc(N)c2ccccc21
IC50 [9]: > 10 µM (inactive)
IC50 [10]: 3.83 µM (active)
IC50 [11]: 2.45 µM (active)
IC50 [12]: > 20 µM (inactive)
IC50 [13]: 1.29 µM (active)
IC50 [14]: 15.9 µM (inactive)
IC50 [15]: > 10 µM (inactive)
IC50 [16]: > 20 µM (inactive)
IC50 [17]: 5.72 µM (inactive)
IC50 [18]: > 20 µM (inactive)

Compound: Cc1cccc(-c2nn(-c3ccccc3)cc2C(=O)Nc2nccs2)c1
IC50 [19]: > 74.4 µM (inactive)

Compound: OC[C@@H]1[C@@H](c2ccccc2)C2(CN(CCC(F)(F)F)C2)N1Cc1ccccc1
AC50 [20]: 2.89 µM (active)
AC50 [21]: 69.1 µM (active)
AC50 [22]: 2.27 µM (active)
AC50 [23]: 2.48 µM (active)
AC50 [24]: 2.36 µM (active)

IC50 [25]: 2.66 µM (active)
IC50 [26]: 6.94 µM (active)
Compound: FC(F)(F)c1cccc(-c2cc(NCCCN3CCCCC3)c3ccccc3n2)c1
